From patent publication US20100261606A1, “Homogeneous and Storage-Stable Mixtures of Different Active Plant Protection Agent Granule Particles” (priority 2007, published 2010)
Where “and” joins values, the source holds several entries; their conditions need not be identical. Identical values can stand only once. Like-named read-outs stand apart in the source and are kept apart here.

Type: physicochemical
Excerpt: This therefore allows the use according to the invention of these mixture packs for plant protectant active substances which had previously shown to be “incompatible” in mixture with other active substances on or in a granule particle. Determining the “incompatibility” of individual active substances in an active substance mixture is effected by simply measuring the remaining residual amounts of active substance after a predetermined storage period. The reasons for this active substance “incompatibility” with other active substances may be based on a very wide range of factors. However, it poses a serious problem for formulation research, when active substance mixtures required by the market cannot be realized due to this problem. [table]

[1] = in Granule coformulation (2), prior art, n = 1
[2] = in Granule mixture (1), according to the invention, n = 3

Structure (SMILES)	Degradation during storage (in words)	Absolute content after 2 months' storage at 40° C. [1] [% by weight]	Absolute content at the beginning of the storage [1] [% by weight]	Percentage change after 2 months' storage at 40° C. [1] [%]	Absolute content after 2 months' storage at 40° C. [2]	Absolute content at the beginning of the storage [2]	Change in content during storage (in words) (in granule mixture (according to the invention))	Percentage change after 2 months' storage at 40° C. [2]
COc1nc(C)nc(NC(=O)NS(=O)(=O)c2cc(I)ccc2C(=O)O)n1 [Iodosulfuron, iodosulfuron]	severe degradation	0.039	0.135	−71.0	0.367 % by weight and 0.360 % by weight and 0.382 % by weight	0.330 % by weight and 0.312 % by weight and 0.378 % by weight	no appreciable change	–
CC(C)N(C(=O)COc1nnc(C(F)(F)F)s1)c1ccc(F)cc1 [Flufenacet, flufenacet]	–	12.10	12.40	−2.4	39.2 % by weight and 38.3 % by weight and 39.9 % by weight	39.8 % by weight and 40.0 % by weight and 40.6 % by weight	–	−1.5% and −4.3% and −1.7%
O=C(Nc1ccc(F)cc1F)c1cccnc1Oc1cccc(C(F)(F)F)c1 [Diflufenican, diflufenican]	–	3.79	3.79	0.0	12.8 % by weight and 12.1 % by weight	12.5 % by weight and 12.3 % by weight and 12.1 % by weight	–	–
